Entries after “also recorded” stand apart in the source; their conditions may differ. Where two headings read alike, the source gives them in different places. *1 amine or outer side, *2 acyl side, *3 side chain or, on linkers, in order; H or OH if unused. Where a SMILES comes first, the peptide text is derived from it. Bridges are numbered along the chain shown (N, C = ends). [ ]: non-standard residue; d: D form. X2 = CC(=O)NC(C(=O)OC(C(C)C)C(N[*:1])C(=O)[*:2])C(O)C(C)C; PhLac = O=C(O)[CH](O)Cc1ccccc1; NMeT = CN[CH](C(=O)O)[CH](C)O; NMeA = CN[CH](C)C(=O)O; NMeDha = C=C(NC)C(=O)O
Experiments:
A2BAR [1] = molecular target: T1, A2BAR (Homo sapiens, UniProt P29275); assay: Intracellular calcium mobilization, T24 bladder cancer cells, native A2BAR (NECA); type: cell-based
T1 sequence (P29275 1-332): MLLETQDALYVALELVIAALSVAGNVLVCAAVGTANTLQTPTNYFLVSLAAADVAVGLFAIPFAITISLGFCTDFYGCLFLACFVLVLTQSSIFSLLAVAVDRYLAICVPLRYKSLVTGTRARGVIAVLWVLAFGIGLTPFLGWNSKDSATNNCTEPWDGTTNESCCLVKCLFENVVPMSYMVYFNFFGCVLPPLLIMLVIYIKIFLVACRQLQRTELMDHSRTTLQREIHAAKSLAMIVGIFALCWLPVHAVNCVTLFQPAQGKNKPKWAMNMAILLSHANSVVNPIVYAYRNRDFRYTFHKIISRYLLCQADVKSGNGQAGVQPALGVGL

P2Y1R [2] = molecular target: T2, P2Y1R (Homo sapiens, UniProt P47900); assay: Intracellular calcium mobilization, T24 bladder cancer cells, native P2Y1R (MRS2365); type: cell-based; conditions: YM 300 nM, FR 300 nM, PTX 200 ng/ml overnight
β2-adrenergic receptor = β2-adrenergic receptor (Homo sapiens, UniProt P07550); assay: Intracellular calcium mobilization, T24 bladder cancer cells, endogenous β2-adrenergic receptor; type: cell-based; conditions: T24 cells; for Effect on formoterol-induced calcium mobilization (β2-adrenergic receptor): PTX 200 ng/ml, CTX 500 ng/ml
A2BAR [3] = molecular target: T1, A2BAR; set-up: method as in PMID 24853985; conditions: T24 cells; cited from earlier work
P2Y1R [4] = molecular target: T2, P2Y1R; assay: Intracellular calcium mobilization, HEK293 cells, native P2Y1R (MRS2365); type: cell-based; conditions: for Effect on P2Y1R (MRS2365)-mediated calcium mobilization: Gq/11 siRNA 250 nM, PTX 200 ng/ml overnight, FR, YM 20 min before agonist
A1AR [5] = molecular target: T3, A1AR (Homo sapiens, UniProt P30542); assay: Intracellular calcium mobilization, HEK293 cells expressing recombinant A1AR (CCPA); type: cell-based; conditions: for Effect on A1AR (CCPA)-mediated calcium mobilization: HEK293 cells overexpressing A1AR, Gq/11 siRNA 250 nM, PTX 200 ng/ml overnight, FR, YM 20 min before agonist
T3 construct: expressed in transfected cells
T3 sequence (P30542 1-326): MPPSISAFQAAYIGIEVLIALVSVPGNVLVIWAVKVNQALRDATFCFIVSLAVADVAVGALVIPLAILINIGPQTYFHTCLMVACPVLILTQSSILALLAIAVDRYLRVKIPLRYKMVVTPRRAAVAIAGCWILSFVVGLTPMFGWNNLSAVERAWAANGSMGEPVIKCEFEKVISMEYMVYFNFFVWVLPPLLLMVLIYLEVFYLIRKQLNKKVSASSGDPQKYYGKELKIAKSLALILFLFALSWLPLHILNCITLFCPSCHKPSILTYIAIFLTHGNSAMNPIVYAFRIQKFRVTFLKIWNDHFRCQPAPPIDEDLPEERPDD

LPA receptor = assay: Intracellular calcium mobilization, HEK293 cells, endogenous LPA receptor; type: cell-based, human
A1AR [6] = assay: Calcium increase, CHO cells expressing recombinant A1AR (CCPA); type: cell-based; conditions: recombinant A1 receptor, CCPA 1 µM, read-out: IC50 in inhibiting the effect of CCPA (Ca2+ increase)
M2 muscarinic receptor = assay: Calcium increase, CHO cells expressing recombinant M2 muscarinic receptor (carbachol); type: cell-based; conditions: carbachol 10 µM, read-out: IC50 in inhibiting the effect of carbachol (Ca2+ increase)
A1AR [7] = molecular target: T3, A1AR; assay: cAMP accumulation, HEK293 cells, A1AR-mediated inhibition of forskolin-stimulated cAMP (CCPA); type: cell-based
Procedure: (§1) HEK293, T24 bladder cancer and MDA-MB-231 breast cell lines were cultured in DMEM medium containing 10% fetal bovine serum, 100 units/ml penicillin, 100 μg/ml streptomycin, and 2 μmol/ml glutamine. For the assay of 3′,5′-cyclic adenosine monophosphate (cAMP), cells were plated in 96-well (4 × 10^4 cells/well) clear plates in 100 μl of medium overnight. Cell culture medium was then replaced with 80 µl HBSS buffer containing 20 mM HEPES, phosphodiesterase inhibitor rolipram (10 μM), and 3 units/ml adenosine deaminase (Worthington Biochemical, Lakewood, NJ, USA) for 30 min followed by agonist addition to the mixture, which was then incubated for 20 min. The treatment of YM or FR was 20 min before agonist addition.

A2AAR = molecular target: T4, A2AAR (Homo sapiens, UniProt P29274); assay: cAMP accumulation, HEK293 cells, A2AAR-mediated stimulation (CGS21680); type: cell-based
T4 construct: host or cells: HEK293
Procedure: as §1

P2Y1R [8] = conditions: 1321N1 astrocytoma (P2Y1-overexpressing); ref Gao and Jacobson, 2017 [29]; cited from earlier work
A1AR [9] = conditions: FR 100 nM; cited from earlier work
HMC-1 cells = conditions: HMC-1 cells; ref Feoktistov et al., 1995 [30]; cited from earlier work
[10] = T24 cells, YM 300 nM, FR 300 nM, PTX 200 ng/ml, CTX 500 ng/ml overnight, other inhibitors 20 min before NECA

T2 sequence (P47900 whole entry): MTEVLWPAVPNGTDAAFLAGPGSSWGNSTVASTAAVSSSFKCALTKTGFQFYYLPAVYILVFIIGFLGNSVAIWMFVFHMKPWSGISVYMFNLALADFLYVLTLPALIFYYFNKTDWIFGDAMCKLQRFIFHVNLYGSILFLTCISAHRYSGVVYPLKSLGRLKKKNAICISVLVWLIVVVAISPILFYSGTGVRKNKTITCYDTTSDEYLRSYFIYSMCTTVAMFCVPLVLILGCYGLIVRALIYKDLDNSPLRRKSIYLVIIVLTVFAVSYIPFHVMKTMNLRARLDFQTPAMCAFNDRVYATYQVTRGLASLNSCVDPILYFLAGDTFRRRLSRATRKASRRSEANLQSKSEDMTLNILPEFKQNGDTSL
T4 sequence (P29274 whole entry): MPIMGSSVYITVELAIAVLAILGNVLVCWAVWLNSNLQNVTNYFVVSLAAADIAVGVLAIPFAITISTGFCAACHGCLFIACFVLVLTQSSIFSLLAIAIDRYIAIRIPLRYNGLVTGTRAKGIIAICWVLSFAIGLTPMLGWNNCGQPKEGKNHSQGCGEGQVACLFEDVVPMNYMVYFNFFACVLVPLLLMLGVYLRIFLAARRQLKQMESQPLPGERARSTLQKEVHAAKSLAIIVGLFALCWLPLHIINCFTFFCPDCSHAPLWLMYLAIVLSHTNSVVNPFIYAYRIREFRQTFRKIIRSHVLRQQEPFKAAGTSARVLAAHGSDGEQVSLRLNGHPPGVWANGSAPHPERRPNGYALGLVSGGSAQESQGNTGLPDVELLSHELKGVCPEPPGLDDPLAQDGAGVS

Compound | Effect on native A2BAR (NECA)-triggered calcium mobilization (A2BAR [1]; [10]) | Effect on native P2Y1R (MRS2365)-triggered calcium mobilization (P2Y1R [2]) | Effect on formoterol-induced calcium mobilization (β2-adrenergic receptor) (β2-adrenergic receptor; FR 300 nM, YM 1 µM, PMA 1 µM) | Effect on P2Y1R (MRS2365)-mediated calcium mobilization (P2Y1R [4]) | Effect on A1AR (CCPA)-mediated calcium mobilization (A1AR [5]) | Sensitivity of P2Y1R calcium mobilization to modulator (P2Y1R [8]) | other results
CCCCCCCCCCCCCC(=O)O[C@@H]1[C@@H](C)[C@@]2(O)[C@@H](C=C(CO)C[C@]3(O)C(=O)C(C)=C[C@@H]23)[C@@H]2C(C)(C)[C@]12OC(C)=O [PMA, phorbol 12-myristate 13-acetate] | partially diminished; also recorded: PMA partially sensitive (8) | completely eliminated | completely diminished; also recorded: PMA completely sensitive (8) |  |  |  | Effect on isoproterenol-induced calcium mobilization (β2-adrenergic receptor) (β2-adrenergic receptor; FR 300 nM, PMA 1 µM): completely diminished
CCCn1c(=O)[nH]c2nc(-c3ccc(S(=O)(=O)N4CCN(c5ccc(Cl)cc5)CC4)cc3)[nH]c2c1=O [PSB603] |  |  |  |  |  |  | Effect on native A2BAR (NECA)-triggered calcium mobilization (A2BAR [1]): completely inhibited; Effect on NECA-induced Ca2+ increase (A2BAR [3]): completely blocked
COc1ccc2c(c1)CC[C@@H]1[C@@H]2CC[C@]2(C)[C@@H](NCCCCCCN3C(=O)C=CC3=O)CC[C@@H]12 [U73122] | completely inhibited |  |  |  |  |  | 
C=C1C(=O)NC(C)C(=O)N(C)C(C)C(=O)NC(C(OC(=O)C(NC(C)=O)C(O)C(C)C)C(C)C)C(=O)N(C)C(C(C)OC)C(=O)OC(C)C(NC(C)=O)C(=O)OC(Cc2ccccc2)C(=O)N1C (stereo not drawn) [YM, YM254890] (Ac-T[PhLac][NMeDha]A[NMeA][X2][NMeT](Me); ester 1-C; configuration not given here) | little if any effect; also recorded: FR and YM insensitive (4); Gαq/11 siRNA insensitive (4) | completely inhibited; also recorded: YM – fully sensitive (4) | YM – partially sensitive (6) | inhibited; also recorded: fully sensitive | inhibited; also recorded: YM and FR – fully sensitive (2) | YM sensitive | IC50 (P2Y1R [4]; agonist MRS2365 1 µM, read-out: IC50 to inhibit P2Y1R-mediated calcium mobilization): 12.8 ± 4.1 nM; IC50 (A1AR [5]; HEK293 cells, overexpressed A1AR, agonist CCPA 1 µM, read-out: IC50 for inhibition of A1AR-mediated calcium mobilization): 12.9 ± 2.52 nM; Effect on LPA-induced intracellular calcium mobilization (LPA receptor; YM 300 nM): completely inhibited; IC50 (A1AR [6]): 11.6 nM; IC50 (M2 muscarinic receptor): 9.53 nM; Effect on A1AR-mediated inhibition of cAMP accumulation (A1AR [7]): did not affect; Effect on A2AAR-mediated stimulation of cAMP accumulation (A2AAR): did not affect; Inhibition of the maximum effect (Emax) of formoterol, calcium mobilization (β2-adrenergic receptor; YM 1 µM): 78%
Pertussis toxin [PTX] | diminished; also recorded: PTX sensitive (5) | no effect; also recorded: PTX insensitive (5) | did not produce significant attenuation; also recorded: PTX not sensitive (6) | no effect; also recorded: PTX insensitive (1) | completely inhibited; also recorded: PTX sensitive (1) | PTX insensitive | Effect on A1AR-mediated Akt1/2/3 phosphorylation (A1AR [9]): completely inhibited; Sensitivity of NECA-induced Ca2+ increase to toxin (HMC-1 cells): ^b NECA-induced Ca^2+ increase in HMC-1 cells was insensitive to CTX and PTX, Feoktistov et al., 1995 [30]
lysophosphatidic acid [LPA] |  |  |  |  |  |  | EC50 (LPA receptor; endogenous LPA receptor, read-out: EC50 of induced intracellular calcium mobilization): 4590 nM

Source: article PMC12222587, “A2B adenosine receptor-triggered intracellular calcium mobilization: Cell type-dependent involvement of Gi, Gq, Gs proteins and protein kinase C” (Purinergic Signalling, 2025)
